Measured values published in ChEMBL document CHEMBL1201862, “PubChem BioAssay data set” (2004).
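48-hour exposure; five concentrations; linearly interpolated endpoints. GI50 marks 50% less growth.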 Calls of active or inactive are those of the source. No stated cut-off is given here; in the data, active = GI50 up to about 1.1 µM and inactive = higher.

Legend:
Assay in all cases: NCI-60 cell line screen, 48 h
M14 = test system: M14
LOX IMVI = test system: LOX IMVI
OVCAR-4 = test system: OVCAR-4
HCT-116 = test system: HCT-116
TK-10 = test system: TK-10
XF498 = test system: XF498
LXFL 529 = test system: LXFL 529
SR = test system: SR
M19-MEL = test system: M19-MEL
SF-295 = test system: SF-295
SW-620 = test system: SW-620
SNB-78 = test system: SNB-78
HL-60 = test system: HL-60
SK-MEL-5 = test system: SK-MEL-5
Malme-3M = test system: Malme-3M
NCI-H460 = test system: NCI-H460
NCI-H522 = test system: NCI-H522
OVCAR-3 = test system: OVCAR-3
IGROV-1 = test system: IGROV-1
DLD-1 = test system: DLD-1

Measured: GI50

Cc1ccccc1NC(=O)CSc1nnc(-c2ccc(/N=C\c3ccc(Cl)cc3)cc2)o1
inactive: M14 > 100 µM | LOX IMVI > 100 µM | OVCAR-4 > 100 µM | HCT-116 > 100 µM | TK-10 > 100 µM | XF498 > 100 µM | LXFL 529 > 100 µM | SR > 100 µM | M19-MEL > 100 µM | SF-295 > 100 µM | SW-620 > 100 µM | SNB-78 > 100 µM | HL-60 > 100 µM | SK-MEL-5 > 100 µM | Malme-3M > 100 µM | NCI-H460 > 100 µM

CC(=O)Nc1ccc(C(=O)NN2C(=O)C(Cl)C2c2cc(Br)cc(Br)c2O)cc1 (stereo not given)
inactive: M14 > 100 µM | LOX IMVI > 100 µM | OVCAR-4 > 100 µM | HCT-116 > 100 µM | XF498 > 100 µM | NCI-H522 > 100 µM | LXFL 529 > 100 µM | SR > 100 µM | OVCAR-3 > 100 µM | M19-MEL > 100 µM | IGROV-1 52.6 µM | SW-620 > 100 µM | DLD-1 > 100 µM | HL-60 > 100 µM | SK-MEL-5 > 100 µM | Malme-3M > 100 µM | NCI-H460 > 100 µM

C=C(C(=C)P(=S)(c1ccccc1)c1ccccc1)P(=S)(c1ccccc1)c1ccccc1
inactive: M14 > 100 µM | OVCAR-4 34.8 µM | HCT-116 > 100 µM | TK-10 > 100 µM | XF498 73.6 µM | NCI-H522 > 100 µM | LXFL 529 > 100 µM | OVCAR-3 > 100 µM | M19-MEL > 100 µM | IGROV-1 > 100 µM | SF-295 > 100 µM | SW-620 > 100 µM | SNB-78 > 100 µM | HL-60 7.33 µM | SK-MEL-5 > 100 µM | Malme-3M 74.8 µM | NCI-H460 > 100 µM

O=C1CSC(Cc2nc3ccccc3[nH]2)=N1
inactive: M14 15.4 µM | LOX IMVI 13.9 µM | OVCAR-4 18.5 µM | HCT-116 12.9 µM | TK-10 28.2 µM | XF498 20.4 µM | NCI-H522 17.7 µM | LXFL 529 16.3 µM | SR 5.83 µM | OVCAR-3 14.3 µM | M19-MEL 7.03 µM | IGROV-1 26.6 µM | SF-295 24.7 µM | SW-620 31.9 µM | SNB-78 40.5 µM | DLD-1 18.2 µM | HL-60 28.6 µM | SK-MEL-5 7.45 µM | Malme-3M 10.6 µM

C=C1CCCC2OC(OC)CCC12 (stereo not given)
inactive: M14 > 100 µM | OVCAR-4 > 100 µM | HCT-116 > 100 µM | TK-10 > 100 µM | XF498 > 100 µM | NCI-H522 > 100 µM | LXFL 529 > 100 µM | SR > 100 µM | OVCAR-3 > 100 µM | M19-MEL > 100 µM | IGROV-1 > 100 µM | SF-295 > 100 µM | SW-620 > 100 µM | SNB-78 > 100 µM | DLD-1 > 100 µM | HL-60 > 100 µM | SK-MEL-5 > 100 µM | Malme-3M > 100 µM | NCI-H460 > 100 µM

Cc1cc(NS(=O)(=O)c2ccc(NC(=O)c3cccc4cc5ccccc5nc34)cc2)no1
inactive: M14 23.5 µM | LOX IMVI > 10 µM | OVCAR-4 18.3 µM | HCT-116 6.7 µM | TK-10 35.9 µM | XF498 17 µM | NCI-H522 15.5 µM | LXFL 529 15.8 µM | OVCAR-3 22.3 µM | M19-MEL 16.6 µM | IGROV-1 15.8 µM | SF-295 19.9 µM | SW-620 25.3 µM | SNB-78 29.9 µM | DLD-1 19.9 µM | SK-MEL-5 15.6 µM | Malme-3M 14.8 µM | NCI-H460 18.3 µM

COC(=O)c1ccc(/N=N/N(C)CO)cc1
inactive: M14 71.1 µM | LOX IMVI > 100 µM | OVCAR-4 55.8 µM | HCT-116 > 100 µM | TK-10 > 100 µM | XF498 9.44 µM | NCI-H522 > 100 µM | LXFL 529 43.6 µM | SR 44.3 µM | OVCAR-3 91.4 µM | M19-MEL > 100 µM | IGROV-1 > 100 µM | SF-295 78 µM | SW-620 > 100 µM | SNB-78 32.5 µM | DLD-1 98.6 µM | HL-60 > 100 µM | SK-MEL-5 > 100 µM | Malme-3M > 100 µM | NCI-H460 > 100 µM

O=C1c2ccccc2CC1C1(O)C(=O)Nc2c(Cl)cc(Cl)cc21 (stereo not given)
inactive: M14 > 100 µM | LOX IMVI 61.8 µM | OVCAR-4 92.5 µM | TK-10 > 100 µM | XF498 28.4 µM | NCI-H522 17.9 µM | LXFL 529 18.8 µM | OVCAR-3 53.5 µM | SF-295 47.9 µM | SW-620 35.2 µM | SNB-78 > 100 µM | DLD-1 53.1 µM | HL-60 35.9 µM | SK-MEL-5 27.9 µM | Malme-3M 79.6 µM | NCI-H460 99.8 µM

O=C(CCc1nnc(S)[nH]1)Nc1cccc(C(F)(F)F)c1
inactive: M14 > 100 µM | LOX IMVI > 100 µM | OVCAR-4 > 100 µM | HCT-116 > 100 µM | TK-10 > 100 µM | XF498 > 100 µM | NCI-H522 35.2 µM | LXFL 529 > 100 µM | SR > 100 µM | OVCAR-3 > 100 µM | IGROV-1 > 100 µM | SF-295 > 100 µM | SW-620 11.2 µM | SNB-78 > 100 µM | DLD-1 > 100 µM | HL-60 > 100 µM | SK-MEL-5 > 100 µM | Malme-3M > 100 µM | NCI-H460 > 100 µM

CC(O)/C=C/C(CCC(C)CO)C(C)C (stereo not given)
inactive: M14 > 100 µM | LOX IMVI > 100 µM | OVCAR-4 > 100 µM | HCT-116 > 100 µM | TK-10 > 100 µM | XF498 > 100 µM | NCI-H522 > 100 µM | LXFL 529 > 100 µM | OVCAR-3 > 100 µM | M19-MEL > 100 µM | IGROV-1 > 100 µM | SF-295 > 100 µM | SW-620 > 100 µM | SNB-78 > 100 µM | DLD-1 > 100 µM | HL-60 > 100 µM | SK-MEL-5 > 100 µM | Malme-3M > 100 µM | NCI-H460 > 100 µM

CN(C)c1ccc(/C=C/C(=O)O)cc1
inactive: M14 > 100 µM | LOX IMVI > 100 µM | HCT-116 > 100 µM | XF498 > 100 µM | NCI-H522 > 100 µM | LXFL 529 > 100 µM | OVCAR-3 49.3 µM | M19-MEL > 100 µM | IGROV-1 > 100 µM | SF-295 > 100 µM | SW-620 > 100 µM | SNB-78 > 100 µM | DLD-1 > 100 µM | HL-60 > 100 µM | SK-MEL-5 > 100 µM | Malme-3M > 100 µM | NCI-H460 > 100 µM

CCCCC#C[I+]c1ccccc1
inactive: M14 15.5 µM | LOX IMVI 12.3 µM | OVCAR-4 14.9 µM | HCT-116 16 µM | TK-10 15.1 µM | XF498 15.3 µM | NCI-H522 3.53 µM | LXFL 529 12.2 µM | SR 15.1 µM | OVCAR-3 16 µM | M19-MEL 15.7 µM | IGROV-1 19.9 µM | SF-295 22.4 µM | SNB-78 21.8 µM | DLD-1 19.5 µM | HL-60 15.4 µM | SK-MEL-5 17.3 µM | Malme-3M 14.8 µM | NCI-H460 11.3 µM

COc1cccc(NC(=O)CC(=O)n2nc(C)c(/N=N/c3ccccc3)c2C)c1
inactive: M14 > 100 µM | LOX IMVI 83.6 µM | OVCAR-4 > 100 µM | HCT-116 > 100 µM | TK-10 85.7 µM | XF498 56.9 µM | NCI-H522 > 100 µM | LXFL 529 > 100 µM | SR 78.7 µM | OVCAR-3 > 100 µM | M19-MEL > 100 µM | IGROV-1 > 100 µM | SF-295 > 100 µM | SW-620 > 100 µM | SNB-78 > 100 µM | DLD-1 > 100 µM | SK-MEL-5 76.4 µM | Malme-3M > 100 µM

O=C1NP23(OCCO2)Oc2ccccc2C3(C(F)(F)F)O1 (stereo not given)
inactive: M14 > 100 µM | LOX IMVI > 100 µM | OVCAR-4 > 100 µM | HCT-116 > 100 µM | TK-10 > 100 µM | XF498 > 100 µM | NCI-H522 > 100 µM | LXFL 529 > 100 µM | OVCAR-3 > 100 µM | M19-MEL > 100 µM | SF-295 > 100 µM | SNB-78 > 100 µM | DLD-1 > 100 µM | HL-60 > 100 µM | SK-MEL-5 > 100 µM | Malme-3M > 100 µM | NCI-H460 78.3 µM

COC(=O)C12CC(c3ccccc31)C1C(=O)OC(=O)C12 (stereo not given)
inactive: M14 > 100 µM | LOX IMVI > 100 µM | OVCAR-4 > 100 µM | HCT-116 > 100 µM | TK-10 > 100 µM | XF498 > 100 µM | NCI-H522 > 100 µM | LXFL 529 > 100 µM | OVCAR-3 > 100 µM | M19-MEL > 100 µM | IGROV-1 > 100 µM | SF-295 > 100 µM | SW-620 > 100 µM | SNB-78 > 100 µM | DLD-1 > 100 µM | HL-60 > 100 µM | SK-MEL-5 > 100 µM | Malme-3M > 100 µM | NCI-H460 > 100 µM
